# US20170014467A1, “COMPOSITION AND THE USE THEREOF” (INFINITUS (CHINA) COMPANY LTD., priority 2015, published 2017)
# Experiments:
# [1] = test system: hyperuricemia model of rats; test: Comparative test in potassium oxonate hyperuricemia rats: serum uric acid, urea nitrogen and creatinine (Example 23); type: in vivo; settings: 15 d intragastric, allopurinol 27 mg/kg + potassium oxonate 1.5 g/kg, mean ± SD
# Source text: (license number: SOCK (Beijing) 2012-0001) were taken. […] Allopurinol, Tokyo chemical industry Co. […] Uric acid and urea nitrogen test kit were provided by Centronic GmbH company in German, with the batch numbers of UF03121HH6G and UF01121G[…] respectively, and creatinine test kit was provided by Shanghai Lanyi Technology Co. Ltd. with the batch number of […]. […] Modeling principle: the rats were intragastrically administered with the chemical uricase inhibitor, potassium oxonate to inhibit the uricase activity in the rats, which make the uric acid in their body unable to be decomposed and resulting in an increase of serum uric acid to replicate the hyperuricemia model of rats. The body weights of the rats were monitored, the blood samples were collected to measure the uric acid, creatinine and urea nitrogen before the experiments and at the 15th day of the administration, and the variance ratio of the serum uric acid levels was measured and calculated. Comparative Test […] Coicis semen 18, Cichorii Herba 8, […] Herba 8 and Pueraia Lobata Radix 8. The health food having the function of lowering uric acid provided in Comparative Example 2 of the present invention is prepared from the following components in parts by weight: Coicis semen 18, Motherwort 10, Cichorii Herba 8, […] Herba 8, Pueraia Lobata Radix 8 and tuna extract 0.1. […] Coicis semen 18, […] semen 9, Cichorii Herba 8, […] […]
# [2] = Animal body weights in the comparative test (Example 23); type: in vivo, SD rats; settings: allopurinol 27 mg/kg + potassium oxonate 1.5 g/kg, mean ± SD
# Method: (§1) 105 SPF grade SD rats, all of which are male and have a body weight of 200±20 (g), provided by Beijing Vital River Laboratory Animal Technology Co., Ltd. (license number: SOCK (Beijing) 2012-0001) were taken. Potassium oxonate, Jinan Chenghuishuangda Chemical Co., Ltd. product with the batch number of 12042001, was prepared with 0.1% CMC-Na into a suspension of a concentration of 0.15 g/ml in an amount for 3 d each time and the stock was stored at 4° C. Allopurinol, Tokyo chemical industry Co. Ltd. product with the batch number of MYRYA-IR, was prepared with 0.1% CMC-Na into a suspension of a concentration of […] in an amount for 3 d each time and the stock was stored at 4° C. . Uric acid and urea nitrogen test kit were provided by Centronic GmbH company in German, with the batch numbers of UF03121HH6G and UF01121GG66G respectively, and creatinine test kit was provided by Shanghai Lanyi Technology Co. Ltd. with the batch number of R102APA.
# (§2) The same volume of drinking water was intragastrically administered to the normal control group every day, and the potassium oxonate was intragastrically administered to each of the rest groups of rats every morning at 1.5 g·kg^−1·d^−1; the same volume of physiological saline was intragastrically administered to the model group in the afternoon; the allopurinol was intragastrically administered to the allopurinol group at 27 mg·kg^−1·d^−1 in the afternoon; the samples to be tested of different doses diluted to the same volume were intragastrically administered to the Sample 1 of high-dose and low-dose groups and the Sample 2 of high-dose and low-dose groups in the afternoon.
# (§3) The body weights of the rats were monitored, the blood samples were collected to measure the uric acid, creatinine and urea nitrogen before the experiments and at the 15th day of the administration, and the variance ratio of the serum uric acid levels was measured and calculated.
# Experimental group: Sample 1—the composition prepared in Example 1.
# [3] = test system: hyperuricemia model of rats; test: Potassium oxonate hyperuricemia model of rats: serum uric acid, urea nitrogen and creatinine after 15 d intragastric administration (Example 22); type: in vivo; settings: allopurinol 27 mg/kg + potassium oxonate 1.5 g/kg
# Method: 105 SPF grade SD rats, all of which are male and have a body weight of 200±20 (g), provided by Beijing Vital River Laboratory Animal Technology Co., Ltd. (license number: SOCK (Beijing) 2012-0001) were taken. Potassium oxonate, Jinan Chenghuishuangda Chemical Co., Ltd. product with the batch number of 12042001, was prepared with 0.1% CMC-Na into a suspension of a concentration of 0.15 g/ml in an amount for 3 d each time and the stock was stored at 4° C. Allopurinol, Tokyo chemical industry Co. Ltd. product with the batch number of MYRYA-IR, was prepared with 0.1% CMC-Na into a suspension of a concentration of 2.7 g/ml in an amount for 3 d each time and the stock was stored at 4° C. . Uric acid and urea nitrogen test kit were provided by Centronic GmbH company in German, with the batch numbers of UF03121HH6G and UF01121GG66G respectively, and creatinine test kit was provided by Shanghai Lanyi Technology Co. Ltd. with the batch number of R102APA. […]
# The body weights of the rats were monitored, the blood samples were collected to measure the uric acid, creatinine and urea nitrogen before the experiments and at the 15th day of the administration, and the variance ratio of the serum uric acid levels was measured and calculated. […]
# [4] = Animal body weights in the hyperuricemia rat experiment (Example 22); type: in vivo, SD rats; settings: allopurinol 27 mg/kg + potassium oxonate 1.5 g/kg, intragastric, mean ± SD
# Method: as §1
# SD rats were adapted for 5 days in the experimental environment, and randomly divided by body weight into normal control group, model group, allopurinol group, Sample 1 (the composition of Chinese herbal medicines and tuna extract prepared in Example 18) high-dose group and low-dose group and Sample 2 (the composition of Chinese herbal medicines prepared in Example 18 excluding tuna extract) high-dose group and low-dose group. According to the clinical dose, the intragastric doses of Samples 1 and 2 were 5 times larger (0.2 ml/100 g) and 30 times larger (1.25 ml/100 g) than the recommended amount for human body for the low-dose groups and high-dose groups, respectively.
# as §2, §3
smiles,measurement,setting,value
Oc1ncnc2[nH]ncc12 [Allopurinol],Creatinine,[1]; model group 31.0 ± 3.3,27.9 ± 2.2 µmol/L
same,Uric Acid,[1]; model group 256.4 ± 41.3,31.8 ± 10.3 µmol/L
same,"animal body weights, Before Experiments","[2]; baseline, N=15",290 ± 13 g
same,"animal body weights, 1 week after treatment",[2],322 ± 20 g
same,"animal body weights, 2 weeks after treatment",[2],352 ± 24 g
same,"animal body weights, 3 weeks after treatment",[2],366 ± 28 g
same,"animal body weights, 4 weeks after treatment",[2],387 ± 29 g
same,Creatinine,"[3]; model group 31.0 ± 3.3, mean ± SD",27.9 ± 2.2 µmol/L
same,Uric Acid,"[3]; model group 256.4 ± 41.3, mean ± SD",31.8 ± 10.3 µmol/L
same,"animal body weights, Before Experiments","[4]; baseline, N=15",290 ± 13 g
same,"animal body weights, 1 week after treatment",[4],322 ± 20 g
same,"animal body weights, 2 weeks after treatment",[4],352 ± 24 g
same,"animal body weights, 3 weeks after treatment",[4],366 ± 28 g
same,"animal body weights, 4 weeks after treatment",[4],387 ± 29 g
